{
  "source": "paper PMC9798004",
  "about": "(Frontiers in Psychiatry, 2022)",
  "key": {"OXTR": {"molecular_target": "OXTR (Homo sapiens, UniProt P30559)", "sequence (P30559 whole entry)": "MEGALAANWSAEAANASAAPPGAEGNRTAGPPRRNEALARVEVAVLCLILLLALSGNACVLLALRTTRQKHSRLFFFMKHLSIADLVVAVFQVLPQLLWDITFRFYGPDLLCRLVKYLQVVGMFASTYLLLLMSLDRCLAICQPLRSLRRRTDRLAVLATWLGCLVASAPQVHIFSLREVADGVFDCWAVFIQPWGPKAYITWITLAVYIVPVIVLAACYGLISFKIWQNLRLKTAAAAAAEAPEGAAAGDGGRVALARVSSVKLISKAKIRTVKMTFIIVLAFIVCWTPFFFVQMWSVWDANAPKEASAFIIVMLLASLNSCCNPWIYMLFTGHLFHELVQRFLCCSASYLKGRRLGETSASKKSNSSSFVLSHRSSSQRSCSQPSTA", "assay": "PathHunter β-arrestin assay", "format": "cell-based", "details": "antagonist mode vs EC80 of control agonist, 10-point curve"}, "ADRA2A": {"molecular_target": "T1, ADRA2A (Homo sapiens, UniProt P08913)", "T1 construct": "host or cells: CHO", "T1 sequence (P08913 whole entry)": "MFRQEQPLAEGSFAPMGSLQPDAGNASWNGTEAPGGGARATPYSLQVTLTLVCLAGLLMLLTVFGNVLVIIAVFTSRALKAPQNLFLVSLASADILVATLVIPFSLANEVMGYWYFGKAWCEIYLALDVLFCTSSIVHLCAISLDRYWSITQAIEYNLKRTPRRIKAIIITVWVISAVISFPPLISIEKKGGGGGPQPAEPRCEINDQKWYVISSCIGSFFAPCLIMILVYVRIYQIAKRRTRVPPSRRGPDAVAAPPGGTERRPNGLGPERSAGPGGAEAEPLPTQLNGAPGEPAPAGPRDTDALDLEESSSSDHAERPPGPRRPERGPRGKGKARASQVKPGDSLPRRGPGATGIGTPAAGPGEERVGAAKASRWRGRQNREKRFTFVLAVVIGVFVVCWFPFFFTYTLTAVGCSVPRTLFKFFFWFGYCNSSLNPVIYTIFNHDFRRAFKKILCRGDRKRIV", "assay": "PathHunter β-arrestin assay", "format": "cell-based", "details": "antagonist mode vs EC80 of control agonist, 10-point curve"}, "[1]": {"system": "AtT20 cells expressing human CB1 (hCB1)", "assay": "LDH release cytotoxicity assay", "format": "cell-based", "details": "30 μM", "procedure": "AtT20 cells expressing either human CB1 (hCB1) or CB2 (hCB2) receptors or wildtype (WT) were grown to confluence in T75 cm^2 flasks in Dulbecco's modified eagle medium containing 10% fetal bovine serum, 100 U penicillin/streptomycin, and 80 μg/mL hygromicyin (Sigma-Aldrich/Merck; Castle Hill, NSW, Australia). Cells were plated in 96-well-microplates at 30,000 cells per well and allowed to adhere overnight in 5% CO2. The following morning, cells were treated with either vehicle (0.1% DMSO; negative control), 30 μM Δ^9-THC, or 30 μM AMB-FUBINACA. At 1 or 6 h, the amount of lactate dehydrogenase in the cell media was tested, and compared with positive control (lysed cells) as per manufacturer's instructions (Dojindo Molecular Technologies, Inc.; Rockville, MD, USA), with readings performed on a Clariostar Plus plate reader (BMG Labtech, Mornington, VIC, Australia). Experiments were performed in triplicate. In order to measure any accumulating LDH, media was not changed after initial incubation. Data is represented as means ± S.E.M. A two-way ANOVA with was performed on the data at each time point, with Tukey's multiple comparison test (α = 0.05). A p < 0.05 was considered statistically significant."}, "CNR1 (CB1)": {"molecular_target": "T2, CNR1 (CB1) (Homo sapiens, UniProt P21554)", "T2 construct": "host or cells: CHO", "T2 sequence (P21554 whole entry)": "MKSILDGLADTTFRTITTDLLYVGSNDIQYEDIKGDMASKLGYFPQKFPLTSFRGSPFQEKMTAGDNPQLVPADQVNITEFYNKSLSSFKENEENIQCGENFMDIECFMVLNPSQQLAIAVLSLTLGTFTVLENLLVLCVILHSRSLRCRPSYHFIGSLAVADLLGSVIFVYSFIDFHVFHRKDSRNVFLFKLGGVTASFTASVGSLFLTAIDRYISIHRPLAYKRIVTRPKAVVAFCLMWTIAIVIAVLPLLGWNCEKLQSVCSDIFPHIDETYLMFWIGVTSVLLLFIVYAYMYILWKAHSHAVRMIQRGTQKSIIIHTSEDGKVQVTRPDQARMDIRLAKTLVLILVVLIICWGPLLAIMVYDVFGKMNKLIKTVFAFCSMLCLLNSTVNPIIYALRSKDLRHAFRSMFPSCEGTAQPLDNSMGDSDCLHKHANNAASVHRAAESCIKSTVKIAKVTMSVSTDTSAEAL", "assay": "PathHunter β-arrestin assay", "format": "cell-based", "details": "agonist mode"}, "CB1": {"system": "CB1", "design": "method as in PMID 31513380", "details": "10 μM; cited from earlier work"}, "[2]": {"system": "GPCR off-targets with >5-fold difference in S/N and CoV (n = 36)", "assay": "Follow-up concentration-response β-arrestin assays, panel of hits", "format": "cell-based", "procedure": "Follow up experiments were prioritized based on the difference between S/N and CoV. Targets with a >5-fold difference between S/N and CoV were investigated for their potential contribution to the AMB-FUBINACA toxidrome with 10-point concentration-response curves generated in technical replicate (range 1.5–30 μM) using the EC80 of the relevant agonist, where applicable in antagonist mode. Simultaneous agonist and antagonist curves were run in parallel to ensure reliability of the assay (see Supplementary Table 2), with both RC50 and signal to background aligning with historical averages, and Z' >0.5. RC50 was estimated using a four-parameter fit (CBIS Data Analysis Suite, ChemInnovation, San Diego, CA) on normalized data."}, "168 GPCRs": {"system": "168 GPCRs", "assay": "gpcrMAX panel 30 μM single-point β-arrestin screen (agonist and antagonist mode)", "format": "cell-based", "details": "antagonist mode", "procedure": "Activity, or a “hit,” was defined as >30% in agonist mode, >35% in antagonist mode, or >50% in the orphan screen (agonist mode). Where these criteria were met, signal-to-noise (S/N) and coefficient of variation (CoV) were also calculated, defined as: […]\nAgonist mode Antagonist modeS/N Compound mean/Baseline mean+(Baseline SD×3) EC80 mean/Compound-(Compound SD× 3)CoV Baseline mean/Compound mean-(Compound SD× 3) Compound mean/EC80 mean-(EC80 SD × 3)\nHits were verified to have S/N>1 and a CoV <1. Thresholds and subsequent validation were guided by Eurofins. Descriptive data (means ± S.E.M) was generated in Graphpad Prism (version 9.2.0, San Diego, CA)."}, "MC4R": {"molecular_target": "MC4R (Homo sapiens, UniProt P32245)", "sequence (P32245 whole entry)": "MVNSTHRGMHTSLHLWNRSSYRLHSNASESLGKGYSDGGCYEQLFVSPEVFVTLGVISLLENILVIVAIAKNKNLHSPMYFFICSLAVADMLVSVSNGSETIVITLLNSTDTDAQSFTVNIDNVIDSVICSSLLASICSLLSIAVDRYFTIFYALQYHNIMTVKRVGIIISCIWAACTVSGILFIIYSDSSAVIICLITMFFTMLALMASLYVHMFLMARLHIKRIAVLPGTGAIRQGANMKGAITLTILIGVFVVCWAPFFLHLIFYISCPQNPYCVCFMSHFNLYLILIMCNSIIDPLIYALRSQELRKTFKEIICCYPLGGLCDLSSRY", "assay": "PathHunter β-arrestin assay", "format": "cell-based", "details": "antagonist mode vs EC80 of control agonist, 10-point curve"}, "HCRTR2": {"molecular_target": "HCRTR2 (Homo sapiens, UniProt O43614)", "sequence (O43614 whole entry)": "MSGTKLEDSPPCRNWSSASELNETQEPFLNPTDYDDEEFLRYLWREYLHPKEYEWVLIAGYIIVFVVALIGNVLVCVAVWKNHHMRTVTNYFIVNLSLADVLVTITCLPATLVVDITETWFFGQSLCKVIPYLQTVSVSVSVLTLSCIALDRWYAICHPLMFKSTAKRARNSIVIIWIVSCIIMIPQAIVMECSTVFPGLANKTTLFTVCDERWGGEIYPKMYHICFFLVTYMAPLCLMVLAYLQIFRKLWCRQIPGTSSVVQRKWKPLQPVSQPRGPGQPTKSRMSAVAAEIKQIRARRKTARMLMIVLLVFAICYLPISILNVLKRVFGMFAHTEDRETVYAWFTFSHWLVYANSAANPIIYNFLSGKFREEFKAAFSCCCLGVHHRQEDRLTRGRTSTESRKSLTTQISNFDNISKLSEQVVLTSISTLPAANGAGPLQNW", "assay": "PathHunter β-arrestin assay", "format": "cell-based", "details": "antagonist mode vs EC80 of control agonist, 10-point curve"}, "CHRM3": {"molecular_target": "CHRM3 (Homo sapiens, UniProt P20309)", "sequence (P20309 whole entry)": "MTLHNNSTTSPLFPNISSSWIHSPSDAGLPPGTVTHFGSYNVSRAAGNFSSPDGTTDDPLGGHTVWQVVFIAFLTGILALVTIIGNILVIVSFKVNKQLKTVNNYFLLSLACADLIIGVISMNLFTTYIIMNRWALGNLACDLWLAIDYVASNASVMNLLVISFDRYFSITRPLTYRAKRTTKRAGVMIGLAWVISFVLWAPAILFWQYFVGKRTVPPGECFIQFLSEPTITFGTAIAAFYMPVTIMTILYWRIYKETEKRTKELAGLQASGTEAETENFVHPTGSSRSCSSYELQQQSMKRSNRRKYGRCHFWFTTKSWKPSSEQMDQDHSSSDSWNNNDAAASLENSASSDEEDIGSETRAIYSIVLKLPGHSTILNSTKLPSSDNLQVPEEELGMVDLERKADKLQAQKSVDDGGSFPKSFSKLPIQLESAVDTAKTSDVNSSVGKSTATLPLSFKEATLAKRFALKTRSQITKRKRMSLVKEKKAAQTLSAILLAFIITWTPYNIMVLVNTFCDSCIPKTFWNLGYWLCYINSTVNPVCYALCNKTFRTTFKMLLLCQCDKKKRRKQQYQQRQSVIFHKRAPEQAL", "format": "cell-based"}, "GALR2": {"molecular_target": "T3, GALR2 (Homo sapiens, UniProt O43603)", "T3 construct": "purchased Eurofins DiscoverX (PathHunter gpcrMAX)", "T3 sequence (O43603 whole entry)": "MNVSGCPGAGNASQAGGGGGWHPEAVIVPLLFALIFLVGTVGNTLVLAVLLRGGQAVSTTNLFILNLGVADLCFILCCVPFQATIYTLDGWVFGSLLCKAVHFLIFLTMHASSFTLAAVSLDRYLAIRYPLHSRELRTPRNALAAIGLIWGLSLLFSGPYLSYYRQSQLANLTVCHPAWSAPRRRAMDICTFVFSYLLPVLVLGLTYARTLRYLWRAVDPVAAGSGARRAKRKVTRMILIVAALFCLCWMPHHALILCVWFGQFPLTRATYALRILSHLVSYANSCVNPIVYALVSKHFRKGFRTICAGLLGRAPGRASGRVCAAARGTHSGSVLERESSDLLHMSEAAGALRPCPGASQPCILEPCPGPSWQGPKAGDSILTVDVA", "assay": "PathHunter β-arrestin assay", "format": "cell-based", "details": "antagonist mode, up to 30 μM"}, "GPR35": {"molecular_target": "GPR35 (Homo sapiens, UniProt Q9HC97)", "sequence (Q9HC97 whole entry)": "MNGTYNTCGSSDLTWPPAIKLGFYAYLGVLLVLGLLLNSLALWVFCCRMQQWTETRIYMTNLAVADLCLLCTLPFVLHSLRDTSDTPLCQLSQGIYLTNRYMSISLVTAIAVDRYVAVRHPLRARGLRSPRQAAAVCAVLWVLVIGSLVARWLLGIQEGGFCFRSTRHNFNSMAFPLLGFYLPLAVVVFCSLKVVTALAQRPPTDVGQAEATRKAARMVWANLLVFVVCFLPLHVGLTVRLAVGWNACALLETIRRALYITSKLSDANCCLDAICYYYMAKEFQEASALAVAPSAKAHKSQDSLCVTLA", "assay": "PathHunter β-arrestin assay", "format": "cell-based", "details": "antagonist mode, up to 30 μM"}, "GALR1": {"molecular_target": "T4, GALR1 (Homo sapiens, UniProt P47211)", "T4 construct": "purchased Eurofins DiscoverX (PathHunter gpcrMAX)", "T4 sequence (P47211 whole entry)": "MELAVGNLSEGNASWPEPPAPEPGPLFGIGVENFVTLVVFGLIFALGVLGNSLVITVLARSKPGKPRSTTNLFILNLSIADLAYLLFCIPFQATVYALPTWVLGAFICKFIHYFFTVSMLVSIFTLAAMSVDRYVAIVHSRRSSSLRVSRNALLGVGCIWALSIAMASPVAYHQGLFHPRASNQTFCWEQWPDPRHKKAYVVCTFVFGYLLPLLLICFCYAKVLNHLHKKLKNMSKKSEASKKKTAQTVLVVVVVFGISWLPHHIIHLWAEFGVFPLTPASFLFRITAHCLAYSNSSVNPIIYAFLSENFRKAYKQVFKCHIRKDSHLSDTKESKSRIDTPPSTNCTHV", "assay": "PathHunter β-arrestin assay", "format": "cell-based", "details": "antagonist mode, up to 30 μM"}, "[3]": {"design": "method as in PMID 35210552", "details": "rats; cited from earlier work"}, "PTGER4": {"molecular_target": "PTGER4 (Homo sapiens, UniProt P35408)", "sequence (P35408 whole entry)": "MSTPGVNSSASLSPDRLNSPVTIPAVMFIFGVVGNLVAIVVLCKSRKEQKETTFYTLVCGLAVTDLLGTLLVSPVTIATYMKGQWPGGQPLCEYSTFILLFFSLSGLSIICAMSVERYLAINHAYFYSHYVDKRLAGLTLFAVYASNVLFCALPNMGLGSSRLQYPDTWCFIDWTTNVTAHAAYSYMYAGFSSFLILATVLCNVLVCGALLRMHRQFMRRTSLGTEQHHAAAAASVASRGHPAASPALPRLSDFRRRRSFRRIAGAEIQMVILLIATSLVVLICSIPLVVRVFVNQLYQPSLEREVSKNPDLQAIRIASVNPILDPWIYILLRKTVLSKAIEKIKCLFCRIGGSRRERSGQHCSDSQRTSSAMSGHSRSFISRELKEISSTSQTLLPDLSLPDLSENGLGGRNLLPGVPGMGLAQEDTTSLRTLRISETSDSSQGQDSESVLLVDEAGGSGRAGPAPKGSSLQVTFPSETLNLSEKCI", "assay": "PathHunter β-arrestin assay", "format": "cell-based", "details": "antagonist mode vs EC80 of control agonist, 10-point curve"}, "CCR4": {"molecular_target": "T5, CCR4 (Homo sapiens, UniProt P51679)", "T5 sequence (P51679 1-360)": "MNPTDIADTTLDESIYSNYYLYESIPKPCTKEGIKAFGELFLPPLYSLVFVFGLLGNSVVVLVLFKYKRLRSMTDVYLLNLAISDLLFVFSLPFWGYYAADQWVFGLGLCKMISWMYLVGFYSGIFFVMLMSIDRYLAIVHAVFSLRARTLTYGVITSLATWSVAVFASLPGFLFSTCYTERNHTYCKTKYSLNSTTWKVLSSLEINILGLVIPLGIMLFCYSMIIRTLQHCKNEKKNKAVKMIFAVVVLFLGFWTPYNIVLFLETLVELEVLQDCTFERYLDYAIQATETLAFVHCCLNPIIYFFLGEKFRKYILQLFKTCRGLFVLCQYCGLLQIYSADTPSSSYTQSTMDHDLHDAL", "assay": "PathHunter β-arrestin assay", "format": "cell-based", "details": "antagonist mode vs EC80 of control agonist, 10-point curve"}, "MRGPRX2": {"molecular_target": "T6, MRGPRX2 (Homo sapiens, UniProt Q96LB1)", "T6 sequence (Q96LB1 1-330)": "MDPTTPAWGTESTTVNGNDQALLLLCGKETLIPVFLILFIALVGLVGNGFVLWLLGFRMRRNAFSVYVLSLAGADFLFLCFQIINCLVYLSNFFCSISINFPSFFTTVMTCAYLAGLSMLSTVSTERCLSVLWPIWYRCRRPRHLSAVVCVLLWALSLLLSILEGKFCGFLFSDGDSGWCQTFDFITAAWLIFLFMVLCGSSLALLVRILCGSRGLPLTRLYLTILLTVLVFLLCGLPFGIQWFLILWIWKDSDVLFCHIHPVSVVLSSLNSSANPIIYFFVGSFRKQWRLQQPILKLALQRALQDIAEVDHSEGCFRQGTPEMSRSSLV", "assay": "PathHunter β-arrestin assay", "format": "cell-based", "details": "antagonist mode vs EC80 of control agonist, 10-point curve"}},
  "note": "Read-outs that look alike come from different tables or passages of the source.",
  "data": [
    {"molecule": "COC(=O)[C@@H](NC(=O)c1nn(Cc2ccc(F)cc2)c2ccccc12)C(C)C", "note": "[AMB-FUBINACA]", "values": [
      {"measurement": "IC50", "setting": "OXTR", "value": 12.8, "unit": "µM"},
      {"measurement": "IC50", "setting": "ADRA2A", "value": 12.1, "unit": "µM"},
      {"measurement": "LDH in cell media, normalized to total LDH", "setting": "[1]; 1 h", "value": "17.09 ± 7.03", "unit": "%"},
      {"measurement": "LDH increase compared with vehicle", "setting": "[1]; 6 h", "value": "not observed"},
      {"measurement": "response of CB1-expressing cells at high concentration", "setting": "CNR1 (CB1); 30 μM, response decreased above 1 μM", "value": "very little activity remaining at 30 μM"},
      {"measurement": "EC50", "setting": "CNR1 (CB1); data above 1 μM excluded from curve fitting", "value": 0.0426, "unit": "µM"},
      {"measurement": "time to peak β-arrestin-2 recruitment", "setting": "CB1", "value": "< 10", "unit": "min"},
      {"measurement": "IC50", "setting": "[2]; antagonist mode (Figure 4), read-out: potencies at targets other than CB1", "value": "> 1", "unit": "µM"},
      {"measurement": "IC50", "setting": "[2]; antagonist mode vs EC80 agonist, concentrations up to 30 μM, read-out: IC50 at 12 receptors (Figure 5)", "value": "> 30", "unit": "µM"},
      {"measurement": "mean inhibition 30 μM, targets with >5-fold difference in S/N and CoV (n = 36)", "setting": "168 GPCRs", "value": "97.00 ± 2.54", "unit": "%"},
      {"measurement": "mean inhibition of targets inhibited above 35% threshold", "setting": "168 GPCRs", "value": 81.16, "unit": "%"},
      {"measurement": "number of off-targets inhibited (>35%)", "setting": "168 GPCRs", "value": "inhibited the greatest number of targets"},
      {"measurement": "IC50", "setting": "MC4R", "value": 5.85, "unit": "µM"},
      {"measurement": "IC50", "setting": "HCRTR2", "value": 12.7, "unit": "µM"},
      {"measurement": "IC50", "setting": "CHRM3", "value": 6.96, "unit": "µM"},
      {"measurement": "inhibitory activity in concentration-response", "setting": "GALR2", "value": "did not produce any clear activity"},
      {"measurement": "inhibitory activity in concentration-response", "setting": "GPR35", "value": "did not produce any clear activity"},
      {"measurement": "inhibitory activity in concentration-response", "setting": "GALR1", "value": "Activity was only observed at the highest concentration (30 μM)"},
      {"measurement": "brain concentration relative to plasma", "setting": "[3]", "value": "~ 5 fold"},
      {"measurement": "IC50", "setting": "PTGER4", "value": 3.13, "unit": "µM"},
      {"measurement": "IC50", "setting": "CCR4", "value": 11.5, "unit": "µM"},
      {"measurement": "IC50", "setting": "MRGPRX2", "value": 11.8, "unit": "µM"}
    ]}
  ]
}
